The structures appear in SMILES notation. Bridge positions count the residues as written; N and C are the ends. Square brackets hold non-standard residues; d marks the D form. Peptide text beside a SMILES is read from it. * marks the point of attachment. ξ: configuration not given here. Bip = N[C@@H](Cc1ccc(-c2ccccc2)cc1)C(=O)O; Phe(3-Me) = Cc1cccc(C[C@H](N)C(=O)O)c1; Cha = N[C@@H](CC1CCCCC1)C(=O)O; Cit = NC(=O)NCCC[C@H](N)C(=O)O; Pen = CC(C)(S)[C@H](N)C(=O)O; Phg = N[C@H](C(=O)O)c1ccccc1; hCys = N[C@@H](CCS)C(=O)O; Carboxymethyl = O=C(O)C*; NMeA = CN[C@@H](C)C(=O)O; Orn = NCCC[C@H](N)C(=O)O; Aun = NCCCCCCCCCCC(=O)O; Dab = NCC[C@H](N)C(=O)O; Dap = NC[C@H](N)C(=O)O; Aib = CC(C)(N)C(=O)O; ξT = CC(O)C(N)C(=O)O

In the assay the target is T1, PD-1/PD-L1 interaction (PE-labeled human PD-L1-Ig binding to Jurkat cell line over-expressing human PD-1) (Homo sapiens, UniProt Q15116).
T1 construct: expressed in transfected cells; host or cells: Jurkat
T1 sequence (Q15116 25-288): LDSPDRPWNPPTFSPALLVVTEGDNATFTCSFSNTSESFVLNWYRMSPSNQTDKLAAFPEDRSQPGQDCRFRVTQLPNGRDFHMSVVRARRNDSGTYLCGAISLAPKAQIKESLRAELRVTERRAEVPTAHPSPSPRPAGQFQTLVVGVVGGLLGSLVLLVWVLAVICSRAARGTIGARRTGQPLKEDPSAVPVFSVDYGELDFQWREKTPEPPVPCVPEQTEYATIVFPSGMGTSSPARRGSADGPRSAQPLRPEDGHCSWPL
The experiment in a line: Jurkat-PD-1 Cell Binding High-Content Screening Assay (CBA). The format is cell-based. Particulars: Jurkat cell line over-expressing human PD-1; PE-labeled PD-L1-Ig 20 nM final; read-out: Jurkat hPD1-PDL1 IC50. A digest of the protocol: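 Human PD-L1-Ig carrying a covalent PE label on its Ig tag serves as the probe, applied at 20 nM final to compound-treated (2 h, 37° C) Jurkat-hPD-1 cells in medium with 10% fetal calf serum. After one hour, fixation and nuclear staining precede high-content image analysis.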
For `Cc1cccc(C[C@@H]2NC(=O)[C@H](CC(=O)O)NC(=O)[C@H](Cc3ccc(OCC(=O)O)cc3)NC(=O)[C@H](CN)NC(=O)CSC[C@@H](C(=O)N[C@@H](CCN)C(=O)NCCCCCCCCCCC(=O)O)NC(=O)[C@@H]([C@H](C)O)NC(=O)[C@H](C(C)C)NC(=O)[C@H](CC(C)C)NC(=O)[C@H](CCN)NC(=O)[C@@H](CC(C)C)NC(=O)[C@H](CCCN)NC(=O)[C@H](Cc3ccc(O)cc3)NC(=O)[C@H](Cc3ccc(-c4ccccc4)cc3)NC(=O)[C@H](C(C)C)NC2=O)c1` [Compound 2771] ({CH2CO}-[Dap]Y(Carboxymethyl)D[Phe(3-Me)]V[Bip]Y[Orn][dL][Dab]LV[dT]C[Dab][Aun]-OH; thioether N-14), the IC50 came to 39.5 nM.
As to `Cc1cccc(C[C@@H]2NC(=O)[C@H](CC(=O)O)NC(=O)[C@H](Cc3ccc(OCC(=O)O)cc3)NC(=O)[C@H](CN)NC(=O)CSC[C@@H](C(=O)N[C@@H](CCN)C(=O)NCCCCCCCCCCC(=O)O)NC(=O)[C@H](c3ccccc3)NC(=O)[C@H](C(C)C)NC(=O)[C@H](CC(C)C)NC(=O)[C@H](CCN)NC(=O)[C@@H](CC(C)C)NC(=O)[C@H](CCCN)NC(=O)[C@H](Cc3ccc(O)cc3)NC(=O)[C@H](Cc3ccc(-c4ccccc4)cc3)NC(=O)[C@H](C(C)C)NC2=O)c1` [Compound 2772] ({CH2CO}-[Dap]Y(Carboxymethyl)D[Phe(3-Me)]V[Bip]Y[Orn][dL][Dab]LV[Phg]C[Dab][Aun]-OH; thioether N-14), the IC50 worked out at 67.7 nM.
In the case of `Cc1cccc(C[C@@H]2NC(=O)[C@H](CC(=O)O)NC(=O)[C@H](Cc3ccc(O)cc3)NC(=O)[C@H](CC(N)=O)NC(=O)CSC[C@@H](C(=O)N[C@@H](CCN)C(=O)NCCCCCCCCCCC(=O)O)NC(=O)[C@H](CCC(=O)O)NC(=O)[C@H](C(C)C)NC(=O)[C@H](CC(C)C)NC(=O)[C@H](CCN)NC(=O)[C@@H](CC(C)C)NC(=O)[C@H](CCCN)NC(=O)[C@H](CCCNC(N)=O)NC(=O)[C@H](Cc3ccc(-c4ccccc4)cc3)NC(=O)[C@H](C(C)C)NC2=O)c1` [Compound 2773] ({CH2CO}-NYD[Phe(3-Me)]V[Bip][Cit][Orn][dL][Dab]LVEC[Dab][Aun]-OH; thioether N-14) it was 22 nM.
Regarding `Cc1cccc(C[C@@H]2NC(=O)[C@H](CC(=O)O)NC(=O)[C@H](Cc3ccc(O)cc3)NC(=O)[C@H](CC(N)=O)NC(=O)CSC[C@@H](C(=O)N[C@@H](CCCN)C(=O)NCCCCCCCCCCC(=O)O)NC(=O)C(C(C)O)NC(=O)[C@H](C(C)C)NC(=O)[C@H](CC(C)C)NC(=O)[C@H](CCN)NC(=O)[C@@H](CC(C)C)NC(=O)[C@H](CCCN)NC(=O)[C@H](CCCNC(N)=O)NC(=O)[C@H](Cc3ccc(-c4ccccc4)cc3)NC(=O)[C@H](C(C)C)NC2=O)c1` (stereo partly drawn) [Compound 2774] ({CH2CO}-NYD[Phe(3-Me)]V[Bip][Cit][Orn][dL][Dab]LV[ξT]C[Orn][Aun]-OH; thioether N-14), the IC50 is 71.9 nM.
In the case of `Cc1cccc(C[C@@H]2NC(=O)[C@H](CC(=O)O)NC(=O)[C@H](Cc3ccccc3)NC(=O)[C@H](CC(N)=O)NC(=O)CSCC[C@@H](C(=O)N[C@@H](CCCN)C(=O)NCCCCCCCCCCC(=O)O)NC(=O)[C@H](CCC(=O)O)NC(=O)[C@H](C(C)C)NC(=O)[C@H](CC(C)C)NC(=O)[C@H](CCN)NC(=O)[C@@H](CC(C)C)NC(=O)[C@H](CCCN)NC(=O)[C@H](CCCNC(N)=O)NC(=O)[C@H](Cc3ccc(-c4ccccc4)cc3)NC(=O)[C@H](C(C)C)NC2=O)c1` [Compound 2775] ({CH2CO}-NFD[Phe(3-Me)]V[Bip][Cit][Orn][dL][Dab]LVE[hCys][Orn][Aun]-OH; thioether N-14) it was 173 nM; in that of `CC(C)C[C@H]1NC(=O)[C@H](CCCN)NC(=O)[C@H](C(C)C)NC(=O)[C@H](Cc2ccc(-c3ccccc3)cc2)NC(=O)[C@H](C(C)C)NC(=O)[C@H](Cc2c[nH]c3ccccc23)NC(=O)[C@H](CC(=O)O)NC(=O)[C@H](Cc2ccc(OCC(=O)O)cc2)NC(=O)[C@H](CN)NC(=O)CSC[C@@H](C(=O)N[C@@H](CCCN)C(=O)NCCCCCCCCCCC(=O)O)NC(=O)[C@H](CCC(=O)O)NC(=O)[C@H](C(C)C)NC(=O)[C@H](CC2CCCCC2)NC(=O)[C@H](Cc2c[nH]cn2)NC1=O` [Compound 2776] ({CH2CO}-[Dap]Y(Carboxymethyl)DWV[Bip]V[Orn][dL]H[Cha]VEC[Orn][Aun]-OH; thioether N-14), 54.1 nM; in that of `Cc1cccc(C[C@@H]2NC(=O)[C@H](CC(=O)O)NC(=O)[C@H](Cc3ccc(OCC(=O)O)cc3)NC(=O)[C@H](CCCNC(=N)N)NC(=O)CSC[C@@H](C(=O)N[C@@H](CCN)C(=O)NCCCCCCCCCCC(=O)O)NC(=O)[C@H]([C@@H](C)O)NC(=O)[C@H](C(C)C)NC(=O)[C@H](CC3CCCCC3)NC(=O)[C@H](CCN)NC(=O)[C@@H](CC(C)C)NC(=O)[C@H](CCN)NC(=O)[C@H](CCCNC(N)=O)NC(=O)[C@H](Cc3ccc(-c4ccccc4)cc3)NC(=O)[C@H](C(C)C)NC2=O)c1` [Compound 2777] ({CH2CO}-RY(Carboxymethyl)D[Phe(3-Me)]V[Bip][Cit][Dab][dL][Dab][Cha]VTC[Dab][Aun]-OH; thioether N-14), 20.1 nM.
As to `Cc1cccc(C[C@@H]2NC(=O)[C@H](CC(=O)O)NC(=O)[C@H](Cc3ccc(OCC(=O)O)cc3)NC(=O)[C@H](CCCNC(=N)N)NC(=O)CSC[C@@H](C(=O)N[C@@H](CCN)C(=O)NCCCCCCCCCCC(=O)O)NC(=O)[C@H](CCC(=O)O)NC(=O)[C@H](C(C)C)NC(=O)[C@H](CC3CCCCC3)NC(=O)[C@H](CCN)NC(=O)[C@@H](CC(C)C)NC(=O)[C@H](CCN)NC(=O)[C@H](CCCNC(N)=O)NC(=O)[C@H](Cc3ccc(-c4ccccc4)cc3)NC(=O)[C@H](C(C)C)NC2=O)c1` [Compound 2778] ({CH2CO}-RY(Carboxymethyl)D[Phe(3-Me)]V[Bip][Cit][Dab][dL][Dab][Cha]VEC[Dab][Aun]-OH; thioether N-14), the IC50 was found to be 8.9 nM.
In the case of `Cc1cccc(C[C@@H]2NC(=O)[C@H](CC(=O)O)NC(=O)[C@H](Cc3ccc(OCC(=O)O)cc3)NC(=O)[C@H](CCCNC(=N)N)NC(=O)CSC[C@@H](C(=O)N[C@@H](CCCN)C(=O)NCCCCCCCCCCC(=O)O)NC(=O)[C@H](CCC(=O)O)NC(=O)[C@H](C(C)C)NC(=O)[C@H](CC3CCCCC3)NC(=O)[C@H](CCN)NC(=O)[C@@H](CC(C)C)NC(=O)[C@H](CCN)NC(=O)[C@H](CCCNC(N)=O)NC(=O)[C@H](Cc3ccc(-c4ccccc4)cc3)NC(=O)[C@H](C(C)C)NC2=O)c1` [Compound 2780] ({CH2CO}-RY(Carboxymethyl)D[Phe(3-Me)]V[Bip][Cit][Dab][dL][Dab][Cha]VEC[Orn][Aun]-OH; thioether N-14), the IC50 turned out to be 6.7 nM.
For `Cc1cccc(C[C@@H]2NC(=O)[C@H](CC(=O)O)NC(=O)[C@H](Cc3ccc(OCC(=O)O)cc3)NC(=O)[C@H](CN)NC(=O)CSCC[C@@H](C(=O)N[C@@H](C)C(=O)N[C@@H](CCC(=O)O)C(=O)NCCCCCCCCCCC(=O)O)NC(=O)[C@H]([C@@H](C)O)NC(=O)[C@H](C(C)C)NC(=O)[C@H](CC3CCCCC3)NC(=O)[C@H](CCN)NC(=O)[C@@H](CC(C)C)NC(=O)[C@H](CCCN)NC(=O)[C@H](CCCNC(N)=O)NC(=O)[C@H](Cc3ccc(-c4ccccc4)cc3)NC(=O)[C@H](C(C)C)NC2=O)c1` [Compound 2781] ({CH2CO}-[Dap]Y(Carboxymethyl)D[Phe(3-Me)]V[Bip][Cit][Orn][dL][Dab][Cha]VT[hCys]AE[Aun]-OH; thioether N-14), the IC50 is 74.3 nM.
In the case of `Cc1cccc(C[C@@H]2NC(=O)[C@H](CC(=O)O)NC(=O)[C@H](Cc3ccc(OCC(=O)O)cc3)NC(=O)[C@H](CN)NC(=O)CSC(C)(C)[C@@H](C(=O)N[C@@H](C)C(=O)N[C@@H](CCC(=O)O)C(=O)NCCCCCCCCCCC(=O)O)NC(=O)[C@H]([C@@H](C)O)NC(=O)[C@H](C(C)C)NC(=O)[C@H](CC3CCCCC3)NC(=O)[C@H](CCN)NC(=O)[C@@H](CC(C)C)NC(=O)[C@H](CCCN)NC(=O)[C@H](CCCNC(N)=O)NC(=O)[C@H](Cc3ccc(-c4ccccc4)cc3)NC(=O)[C@H](C(C)C)NC2=O)c1` [Compound 2782] ({CH2CO}-[Dap]Y(Carboxymethyl)D[Phe(3-Me)]V[Bip][Cit][Orn][dL][Dab][Cha]VT[Pen]AE[Aun]-OH; thioether N-14), the IC50 was 336 nM.
In the case of `Cc1cccc(C[C@@H]2NC(=O)[C@H](CC(=O)O)NC(=O)[C@H](Cc3ccc(OCC(=O)O)cc3)NC(=O)[C@H](CN)NC(=O)CSC[C@@H](C(=O)N(C)[C@@H](C)C(=O)N[C@@H](CCC(=O)O)C(=O)NCCCCCCCCCCC(=O)O)NC(=O)[C@H]([C@@H](C)O)NC(=O)[C@H](C(C)C)NC(=O)[C@H](CC3CCCCC3)NC(=O)[C@H](CCN)NC(=O)[C@@H](CC(C)C)NC(=O)[C@H](CCCN)NC(=O)[C@H](CCCNC(N)=O)NC(=O)[C@H](Cc3ccc(-c4ccccc4)cc3)NC(=O)[C@H](C(C)C)NC2=O)c1` [Compound 2783] ({CH2CO}-[Dap]Y(Carboxymethyl)D[Phe(3-Me)]V[Bip][Cit][Orn][dL][Dab][Cha]VTC[NMeA]E[Aun]-OH; thioether N-14) it was 368 nM; in that of `Cc1cccc(C[C@@H]2NC(=O)[C@H](CC(=O)O)NC(=O)[C@H](Cc3ccc(OCC(=O)O)cc3)NC(=O)[C@H](CN)NC(=O)CSC[C@@H](C(=O)NC(C)(C)C(=O)N[C@@H](CCC(=O)O)C(=O)NCCCCCCCCCCC(=O)O)NC(=O)[C@H]([C@@H](C)O)NC(=O)[C@H](C(C)C)NC(=O)[C@H](CC3CCCCC3)NC(=O)[C@H](CCN)NC(=O)[C@@H](CC(C)C)NC(=O)[C@H](CCCN)NC(=O)[C@H](CCCNC(N)=O)NC(=O)[C@H](Cc3ccc(-c4ccccc4)cc3)NC(=O)[C@H](C(C)C)NC2=O)c1` [Compound 2784] ({CH2CO}-[Dap]Y(Carboxymethyl)D[Phe(3-Me)]V[Bip][Cit][Orn][dL][Dab][Cha]VTC[Aib]E[Aun]-OH; thioether N-14), 21.8 nM.

The values above are taken from patent US20260022142A1, “MACROCYCLIC IMMUNOMODULATORS” (Bristol-Myers Squibb Company, priority 2022, published 2026).
